Assay results taken from patent US20070134202A1, “Cancer gene therapeutic drug” (priority 2003, published 2007).

What was measured:
Type in all cases: cell-based
cancer cells [1] = experiment: PFU assay of adenovirus production
Excerpt: (§1) That is, ALA and Fe can enhance antitumor effect, because they can increase the infectivity of adenovirus to cancer cells and the amount of virus production within the cells.

Ovarian cancer cells HEY = experiment: Influence of Fe and ALA on the proliferation inhibitory effect of adenovirus AdE3-1A1.3B (FIG. 15-17)
Procedure: Ovarian cancer cells HEY were cultured in 12-well plate at a rate of 10,000 cells/well and FeSO4 was added at a concentration of 50 μg/ml, 5 μg/ml, 0.5 μg/ml or 0 μg/ml on the following day and the cytolysis type adenovirus AdE3-1A1.3B was added to all wells. The proliferation inhibitory effect of the adenovirus was evaluated by IC50 after five days.
(§2) Next, the ovarian cancer cell line HEY was cultured in a 12-well plate at a rate of 10,000 cells/well and 5-aminolevulinic acid (ALA) was added at a concentration of 50 μg/ml, 5 μg/ml, 0.5 μg/ml or 0 μg/ml on the following day and the cytolysis type adenovirus AdE3-1A1.3B was added to all wells. The proliferation inhibitory effect of the adenovirus was evaluated by IC50 after five days.
as §2, with “Furthermore,” for “Next,”, “FeSO4” for “5-aminolevulinic acid (ALA)”, “day. In addition,” for “day and”, “AdE3-1A1.3B and 50 μg/ml of 5-aminolevulinic acid (ALA) were added to each well. Only the adenovirus” for “AdE3-1A1.3B”, “a control.” for “all wells.”

cancer cells [2] = experiment: β-gal assay of adenovirus infectivity
Excerpt: as §1

Molecule	amount of adenovirus production (cancer cells [1])	proliferation inhibitory effect to that of only adenovirus administration (Ovarian cancer cells HEY; 50 μg/ml of ALA and AdE3-1A1.3B, IC50 (vp/cell) after five days)	infectivity of adenovirus (cancer cells [2])	proliferation inhibitory effect to that of only adenovirus administration (Ovarian cancer cells HEY; 0.5 μg/ml of FeSO4, 50 μg/ml of ALA and AdE3-1A1.3B, after five days)	proliferation inhibitory effect to that of only adenovirus administration (Ovarian cancer cells HEY; 5 μg/ml of FeSO4, 50 μg/ml of ALA and AdE3-1A1.3B, after five days)	proliferation inhibitory effect to that of only adenovirus administration (Ovarian cancer cells HEY; 5 μg/ml of FeSO4 and AdE3-1A1.3B, IC50 (vp/cell) after five days)	proliferation inhibitory effect to that of only adenovirus administration (Ovarian cancer cells HEY; 50 μg/ml of FeSO4, 50 μg/ml of ALA and AdE3-1A1.3B, after five days)	proliferation inhibitory effect to that of only adenovirus administration (Ovarian cancer cells HEY; 50 μg/ml of FeSO4 and AdE3-1A1.3B, IC50 (vp/cell) after five days)
NCC(=O)CCC(=O)O [ALA, 5-aminolevulinic acid, reference compound]	increased amount of adenovirus production	about 100 fold	increased infectivity of adenovirus	–	–	–	–	–
[Fe] [Fe]	increased amount of adenovirus production	–	increased infectivity of adenovirus	–	–	–	–	–
ferrous sulfate [FeSO4]	–	–	–	about 200 fold	about 700 fold	about 8 fold	about 1,000 fold	about 20 fold
